Where a name gives a salt, the structure may show the parent alone.
Assays:
[1] = system: platelet aggregation caused by ADP in platelet-rich plasma (PRP); assay: Test Example 1: in vitro platelet aggregation inhibitory effect; type: cell-based, rat (male Sprague-Dawley); conditions: 10 μg/ml test compound; rat PRP; ADP final concentration 10 μM; maximum platelet aggregation ratio
Description: Male Sprague-Dawley rats (8-week old, Japan SLC, Inc.), 3 to 4 animals per group, were used for the test. The platelet aggregation was measured with an automatic platelet aggregometer (MCM Hema Tracer 313M, MC Medical, Inc.) by a partially modified method of Born et al., The Journal of Physiology, Vol. 168, Section 178 (1963). 6.3 ml of blood was sampled from the ventral aorta of a rat anesthetized with pentobarbital (40 mg/kg) using 3.8% (w/v) sodium citrate solution (0.7 ml) as an anticoagulant. The obtained blood containing citrate was centrifuged (230 g, 15 minutes, room temperature) to separate a platelet-rich plasma (hereinbelow abbreviated as PRP). The blood after the separation of PRP was further centrifuged (2,000 g, 10 minutes, room temperature) to separate a platelet-poor plasma (hereinbelow abbreviated as PPP). After the number of blood platelet in PRP was measured with a multi-item automatic blood corpuscle counter (KX-21N, Sysmex Corporation), PPP was added thereto to adjust the blood platelet count to 5×10^8/ml. After PRP (239 μl) was pipetted into cuvettes, test compounds (1 μl) dissolved in dimethylsulfoxide (DMSO) were added to PRP and the cuvettes were set in the automatic platelet aggregometer. DMSO (1 μl) was added in place of the test compounds for the control group. After preliminary warming (37° C.) for 1.5 minutes, 10 μl of adenosine 5′-diphosphate (ADP) solution (final concentration at 10 μM) was added to cause platelet aggregation. Platelet aggregation was measured for 5 minutes and the maximum platelet aggregation ratio was determined.

[2] = system: platelet aggregation caused by ADP in platelet-rich plasma (PRP) after oral administration; assay: Test Example 2: ex vivo platelet aggregation inhibitory effect; type: in vivo, rat (male Sprague-Dawley); conditions: 4 hours before blood sampling, rat PRP, ADP final concentration 3 μM, maximum platelet aggregation ratio; for inhibition at 10 mg/kg: 10 mg/kg orally, read-out: Test Example 1 (% inhibition) 10 mg/kg
Description: Male Sprague-Dawley rats (8-week old, Japan SLC, Inc.), 3 to 4 animals per group, were used for the test. The platelet aggregation was measured with an automatic platelet aggregometer (MCM Hema Tracer 313M, MC Medical, Inc.) by a partially modified method of Bom et al., The Journal of Physiology, Vol. 168, Section 178 (1963). Test compounds suspended in 5% Arabian gum solution or 10% dimethylacetamide/64% polyethylene glycol 400/16% Tween 80 solution were orally administered in a dose ratio of 1 mL/kg 4 hours before blood sampling. Vehicle was orally administered 4 hours in a dose ratio of 1 mL/kg before the sampling of the blood for the control group. 6.3 ml of blood was sampled from the ventral aorta of a rat anesthetized with pentobarbital (40 mg/kg) using 3.8% (w/v) sodium citrate solution (0.7 ml) as an anticoagulant. The obtained blood containing citrate was centrifuged (230 g, 15 minutes, room temperature) to separate PRP. The blood after the separation of PRP was further centrifuged (2,000 g, 10 minutes, room temperature) to separate PPP. After the number of blood platelet in PRP was measured with a multi-item automatic blood corpuscle counter (KX-21N, Sysmex Corporation), PPP was added thereto to adjust the blood platelet to 5×10^8/ml. After PRP (240 μl) was pipetted into cuvettes, the cuvettes were set in the automatic platelet aggregometer. After preliminary warming (37° C.) for 1.5 minutes, 10 μl of ADP solution (final concentration 3 μM) was added to cause platelet aggregation. Platelet aggregation was measured for 5 minutes and the maximum platelet aggregation ratio was determined.

Row | Compound | inhibition at 10 µg/mL [1] | inhibition at 10 mg/kg [2] | inhibition at 3 mg/kg ([2]; 3 mg/kg orally, read-out: Test Example 1 (% inhibition) 3 mg/kg)
1 | O=C(O)CN1CCN(C/C=C2\CN(C(C(=O)C3CC3)c3ccccc3F)CCC2S)CC1=O (stereo not shown) [Example 15, (E)-3-{2-[4-(Carboxymethyl)-3-oxopiperazin-1-yl]ethylidene}-1-[2-cyclopropyl-1-(2-fluorophenyl)-2-oxoethyl]-4-sulfanylpiperidine dihydrochloride] | 90% | – | –
2 | COC(=O)CCN1CCN(C/C=C2\CN(C(C(=O)C3CC3)c3ccccc3F)CCC2S)CC1=O (stereo not shown) [Example 18, (E)-1-[2-Cyclopropyl-1-(2-fluorophenyl)-2-oxoethyl]-3-(2-{4-[2-(methoxycarbonyl)ethyl]-3-oxopiperazin-1-yl}ethylidene)-4-sulfanylpiperidine dihydrochloride] | 73% | 74% | –
3 | O=C(O)CCN1CCN(C/C=C2\CN(C(C(=O)C3CC3)c3ccccc3F)CCC2S)CC1=O (stereo not shown) [Example 19, (E)-3-(2-{4-[2-(Carboxyethyl)]-3-oxopiperazin-1-yl}ethylidene)-1-[2-cyclopropyl-1-(2-fluorophenyl)-2-oxoethyl]-4-sulfanylpiperidine dihydrochloride] | 77% | 60% | –
4 | CCOC(=O)CCN1CCN(C/C=C2\CN(C(C(=O)C3CC3)c3ccccc3F)CCC2S)C(=O)C1 (stereo not shown) [Example 22, (E)-1-[2-Cyclopropyl-1-(2-fluorophenyl)-2-oxoethyl]-3-(2-{4-[2-(ethoxycarbonyl)ethyl]-2-oxopiperazin-1-yl}ethylidene)-4-sulfanylpiperidine dihydrochloride] | 67% | 79% | –
5 | O=C(O)CCN1CCN(C/C=C2\CN(C(C(=O)C3CC3)c3ccccc3F)CCC2S)C(=O)C1 (stereo not shown) [Example 23, (E)-3-(2-{4-[2-(Carboxyethyl)]-2-oxopiperazin-1-yl}ethylidene)-1-[2-cyclopropyl-1-(2-fluorophenyl)-2-oxoethyl]-4-sulfanylpiperidine dihydrochloride] | 77% | 72% | –
6 | O=C(O)c1cnn(C/C=C2\CN(C(C(=O)C3CC3)c3ccccc3F)CCC2S)c1 (stereo not shown) [Example 44, (E)-3-[2-(4-Carboxy-1H-pyrazol-1-yl)ethylidene]-1-[2-cyclopropyl-1-(2-fluorophenyl)-2-oxoethyl]-4-sulfanylpiperidine hydrochloride] | 81% | – | 61%
7 | CCOC(=O)c1cn(C/C=C2\CN(C(C(=O)C3CC3)c3ccccc3F)CCC2S)nn1 (stereo not shown) [Example 50, (E)-1-[2-Cyclopropyl-1-(2-fluorophenyl)-2-oxoethyl]-3-[2-(4-ethoxycarbonyl-1H-1,2,3-triazol-1-yl)ethylidene]-4-sulfanylpiperidine hydrochloride] | 79% | – | –
8 | O=C(O)c1cn(C/C=C2\CN(C(C(=O)C3CC3)c3ccccc3F)CCC2S)nn1 (stereo not shown) [Example 51, (E)-3-[2-(4-Carboxy-1H-1,2,3-triazol-1-yl)ethylidene]-1-[2-cyclopropyl-1-(2-fluorophenyl)-2-oxoethyl]-4-sulfanylpiperidine hydrochloride] | 81% | – | –
9 | O=C(O)Cc1cnn(C/C=C2\CN(C(C(=O)C3CC3)c3ccccc3F)CCC2S)c1 (stereo not shown) [Example 74, (E)-3-{2-[4-(Carboxymethyl)-1H-pyrazol-1-yl]ethylidene}-1-[2-cyclopropyl-1-(2-fluorophenyl)-2-oxoethyl]-4-sulfanylpiperidine hydrochloride] | 80% | 100% | –
10 | CN(C/C=C1\CN(C(C(=O)C2CC2)c2ccccc2F)CCC1S)CC(=O)O (stereo not shown) [Example 83, (E)-3-{2-[N-(Carboxymethyl)-N-methylamino]ethylidene}-1-[2-cyclopropyl-1-(2-fluorophenyl)-2-oxoethyl]-4-sulfanylpiperidine dihydrochloride] | 68% | – | –
11 | CCOC(=O)CN(C)C/C=C1/CN(C(C(=O)C2CC2)c2ccccc2F)CCC1S (stereo not shown) [Example 85, (Z)-1-[2-Cyclopropyl-1-(2-fluorophenyl)-2-oxoethyl]-3-{2-[N-(ethoxycarbonylmethyl)-N-methylamino]ethylidene}-4-sulfanylpiperidine dihydrochloride] | – | 82% | –
12 | CN(C/C=C1/CN(C(C(=O)C2CC2)c2ccccc2F)CCC1S)CC(=O)O (stereo not shown) [Example 86, (Z)-3-{2-[N-(Carboxymethyl)-N-methylamino]ethylidene}-1-[2-cyclopropyl-1-(2-fluorophenyl)-2-oxoethyl]-4-sulfanylpiperidine dihydrochloride] | 82% | – | –
13 | CCOC(=O)CCCN(C)C/C=C1/CN(C(C(=O)C2CC2)c2ccccc2F)CCC1SC(C)=O (stereo not shown) [Example 89, (Z)-4-(Acetylsulfanyl)-1-[2-cyclopropyl-1-(2-fluorophenyl)-2-oxoethyl]-3-(2-{N-[3-(ethoxycarbonyl)propyl]-N-methylamino}ethylidene)piperidine dihydrochloride] | – | 83% | –
14 | CN(C/C=C1/CN(C(C(=O)C2CC2)c2ccccc2F)CCC1S)CCCC(=O)O (stereo not shown) [Example 91, (Z)-3-(2-{N-[3-(Carboxy)propyl]-N-methylamino}ethylidene)-1-[2-cyclopropyl-1-(2-fluorophenyl)-2-oxoethyl]-4-sulfanylpiperidine dihydrochloride] | 74% | – | –
15 | O=C(O)c1cnn(C/C=C2/CN(C(C(=O)C3CC3)c3ccccc3F)CCC2S)c1 (stereo not shown) [Example 111, (Z)-3-[2-(4-Carboxy-1H-pyrazol-1-yl)ethylidene]-1-[2-cyclopropyl-1-(2-fluorophenyl)-2-oxoethyl]-4-sulfanylpiperidine hydrochloride] | 82% | 82% | –
